Reference: ChEMBL document CHEMBL4414637, “Resorcinosides A and B, Glycosylated Alkylresorcinols from a Marine-Derived Strain of the Fungus Penicillium janthinellum” (2019)
Structures can show the parent of a compound that is named as a salt.

What was measured:
Format in all cases: functional
NUGC-3 = experiment: Cytotoxicity against human NUGC3 cells assessed as cell growth inhibition measured after 48 hrs by SRB assay; details: NUGC-3, 48 h
ACHN = experiment: Cytotoxicity against human ACHN cells assessed as cell growth inhibition measured after 48 hrs by SRB assay
PC-3 = experiment: Cytotoxicity against human PC3 cells assessed as cell growth inhibition measured after 48 hrs by SRB assay; details: PC-3, 48 h
NCI-H23 = experiment: Cytotoxicity against human NCI-H23 cells assessed as cell growth inhibition measured after 48 hrs by SRB assay; details: NCI-H23, 48 h
MDA-MB-231 = experiment: Cytotoxicity against human MDA-MB-231 cells assessed as cell growth inhibition measured after 48 hrs by SRB assay; details: MDA-MB-231, 48 h
HCT-15 = experiment: Cytotoxicity against human HCT15 cells assessed as cell growth inhibition measured after 48 hrs by SRB assay; details: HCT-15, 48 h

Compound | GI50 (NUGC-3) [µM] | GI50 (ACHN) [µM] | GI50 (PC-3) [µM] | GI50 (NCI-H23) [µM] | GI50 (MDA-MB-231) [µM] | GI50 (HCT-15) [µM]
CC[C@H](C)[C@@H](CCCCCCC/C=C/C=C/CCc1cc(O)cc(O)c1)O[C@H]1O[C@H](CO)[C@@H](O)[C@H](O)[C@H]1O | 9.3 | 31 | 21 | 24 | 25 | 19
CC[C@H](C)[C@@H](CCCCCCC/C=C/C=C/CCc1cc(O)cc(O)c1Cc1c(O)cc(C)oc1=O)O[C@H]1O[C@H](CO)[C@@H](O)[C@H](O)[C@H]1O | > 50 | > 50 | > 50 | > 50 | > 50 | > 50
COc1cccc2c1C(=O)c1c(O)c3c(c(O)c1C2=O)C[C@@](O)(C(=O)CO)C[C@@H]3O[C@H]1C[C@H](N)[C@H](O)[C@H](C)O1 [DOXORUBICIN HYDROCHLORIDE] | 0.15 | 0.13 | 0.14 | 0.14 | 0.15 | 0.14
